Among the data in ChEMBL document CHEMBL2074259, “Mouse reduced in osteosclerosis transporter functions as an organic anion transporter 3 and is localized at abluminal membrane of blood-brain barrier” (J Pharmacol Exp Ther, 2004) are Activity, activity and Km values, retold here.

Where a name gives a salt, the structure may show the parent alone.

Data set [1] has as its target T1, Organic anion transporter 3 (Mus musculus, UniProt O88909).
T1 sequence (O88909 whole entry): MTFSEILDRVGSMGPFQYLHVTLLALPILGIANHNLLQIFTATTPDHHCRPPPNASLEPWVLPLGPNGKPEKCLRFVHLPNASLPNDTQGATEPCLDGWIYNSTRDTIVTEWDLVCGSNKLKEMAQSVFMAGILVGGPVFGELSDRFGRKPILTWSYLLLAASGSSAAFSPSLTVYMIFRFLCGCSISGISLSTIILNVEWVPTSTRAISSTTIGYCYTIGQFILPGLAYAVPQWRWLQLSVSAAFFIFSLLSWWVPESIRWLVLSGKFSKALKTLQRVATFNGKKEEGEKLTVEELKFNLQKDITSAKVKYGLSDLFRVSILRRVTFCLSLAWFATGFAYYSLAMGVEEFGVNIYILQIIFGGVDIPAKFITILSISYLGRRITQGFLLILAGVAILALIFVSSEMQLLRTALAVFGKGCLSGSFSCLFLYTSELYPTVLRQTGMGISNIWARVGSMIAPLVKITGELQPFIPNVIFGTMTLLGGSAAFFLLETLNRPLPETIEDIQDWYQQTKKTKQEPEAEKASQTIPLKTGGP
As to the kind of experiment: TP_TRANSPORTER: inhibition of benzylpenicillin uptake in Oat3-expressing oocyte cells. Set-up: scale not given: the % may be the effect or the level left. It counts as functional, cell-based.

Data set [2] has as its target T2, Oat3 (organic anion transporter 3) (Mus musculus, UniProt O88909).
T2 sequence (O88909 whole entry): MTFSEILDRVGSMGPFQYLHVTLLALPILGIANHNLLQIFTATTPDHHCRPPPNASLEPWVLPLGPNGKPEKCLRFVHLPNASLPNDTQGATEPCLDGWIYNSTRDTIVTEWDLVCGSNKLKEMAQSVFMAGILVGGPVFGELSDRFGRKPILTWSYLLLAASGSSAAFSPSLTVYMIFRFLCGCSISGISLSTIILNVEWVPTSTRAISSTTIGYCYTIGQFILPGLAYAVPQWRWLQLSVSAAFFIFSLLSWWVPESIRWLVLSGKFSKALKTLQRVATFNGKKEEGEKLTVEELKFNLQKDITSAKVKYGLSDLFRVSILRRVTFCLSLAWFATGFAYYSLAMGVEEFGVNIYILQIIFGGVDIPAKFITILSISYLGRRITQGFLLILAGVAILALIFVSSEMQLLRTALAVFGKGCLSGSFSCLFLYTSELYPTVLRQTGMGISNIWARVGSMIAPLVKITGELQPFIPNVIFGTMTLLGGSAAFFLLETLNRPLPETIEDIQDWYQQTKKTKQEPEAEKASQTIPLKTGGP
As to the kind of experiment: TP_TRANSPORTER: inhibition of benzylpenicillin uptake by Triiodothyronine at a concentration of 1000uM in Oat3-expressing oocyte cells. It counts as functional, cell-based. Set-up: scale not given: the % may be the effect or the level left. To be noted: Oat3-expressing oocytes, probe benzylpenicillin; read-out: Activity.

The target of data set [3] is T2, Oat3 (organic anion transporter 3). As to the kind of experiment: TP_TRANSPORTER: inhibition of benzylpenicillin uptake by Urate at a concentration of 1000uM in Oat3-expressing oocyte cells. It counts as functional, cell-based. Set-up: scale not given: the % may be the effect or the level left. The following applies: Oat3-expressing oocytes, probe benzylpenicillin; read-out: Activity.

Data set [4] concerns the target T1, Organic anion transporter 3. As to the kind of experiment: TP_TRANSPORTER: inhibition of benzylpenicillin uptake by Estrone-3-sulfate at a concentration of 1000uM in Oat3-expressing oocyte cells. The format is functional, cell-based. Set-up: scale not given: the % may be the effect or the level left.
The target is the same in data set [5]. As to the kind of experiment: (§1) TP_TRANSPORTER: uptake in Oat3-expressing oocyte cells. It counts as functional, cell-based.
Data set [6] shares this target. As to the kind of experiment: TP_TRANSPORTER: inhibition of benzylpenicillin uptake by Bromosulfophthalein at a concentration of 1000uM in Oat3-expressing oocyte cells. The format is functional, cell-based. Set-up: scale not given: the % may be the effect or the level left.
Data set [7] addresses T2, Oat3 (organic anion transporter 3). Description: TP_TRANSPORTER: inhibition of benzylpenicillin uptake by Pravastatin at a concentration of 1000uM in Oat3-expressing oocyte cells. To be noted: Oat3-expressing oocytes, probe benzylpenicillin; read-out: Activity. Set-up: scale not given: the % may be the effect or the level left. It counts as functional, cell-based.
Data set [8] deals with T1, Organic anion transporter 3. Description: TP_TRANSPORTER: inhibition of benzylpenicillin uptake by 5-Hydroxyindole-3-acetic acid at a concentration of 1000uM in Oat3-expressing oocyte cells. Set-up: scale not given: the % may be the effect or the level left. It counts as functional, cell-based.
For data set [9] the target is unchanged. As to the kind of experiment: TP_TRANSPORTER: inhibition of benzylpenicillin uptake by P-aminohippuric acid at a concentration of 1000uM in Oat3-expressing oocyte cells. The format is functional, cell-based. Set-up: scale not given: the % may be the effect or the level left.
For data set [10] the target is unchanged. As to the kind of experiment: TP_TRANSPORTER: inhibition of benzylpenicillin uptake by Estradiol sulfate at a concentration of 5uM in Oat3-expressing oocyte cells. The format is functional, cell-based. Set-up: scale not given: the % may be the effect or the level left.
Data set [11] shares this target. Description: TP_TRANSPORTER: inhibition of benzylpenicillin uptake by 3'-Azido-3'-deoxythymidine at a concentration of 1000uM in Oat3-expressing oocyte cells. The format is functional, cell-based. Set-up: scale not given: the % may be the effect or the level left.
Data set [12] has the same target. As to the kind of experiment: TP_TRANSPORTER: inhibition of benzylpenicillin uptake by Prostaglandin E2 at a concentration of 1000uM in Oat3-expressing oocyte cells. It counts as functional, cell-based. Set-up: scale not given: the % may be the effect or the level left.
For data set [13] the target is unchanged. As to the kind of experiment: TP_TRANSPORTER: inhibition of benzylpenicillin uptake by Methotrexate at a concentration of 1000uM in Oat3-expressing oocyte cells. The format is functional, cell-based. Set-up: scale not given: the % may be the effect or the level left.
Data set [14] has the same target. As to the kind of experiment: TP_TRANSPORTER: inhibition of benzylpenicillin uptake by Homovanillic acid at a concentration of 1000uM in Oat3-expressing oocyte cells. It counts as functional, cell-based. Set-up: scale not given: the % may be the effect or the level left.
The target of data set [15] is T2, Oat3 (organic anion transporter 3). As to the kind of experiment: TP_TRANSPORTER: inhibition of benzylpenicillin uptake by Estradiol glucuronide sulfate at a concentration of 5uM in Oat3-expressing oocyte cells. Set-up: scale not given: the % may be the effect or the level left. The format is functional, cell-based. The following applies: Oat3-expressing oocytes, probe benzylpenicillin; read-out: Activity.

Data set [16] has the same target. Description: in vitro. The following applies: Oat3-expressing oocytes, probe benzylpenicillin.
Data set [17] addresses T1, Organic anion transporter 3. Description: TP_TRANSPORTER: inhibition of benzylpenicillin uptake by Probenecid at a concentration of 1000uM in Oat3-expressing oocyte cells. The format is functional, cell-based. Set-up: scale not given: the % may be the effect or the level left.
Data set [18] has the same target. Description: TP_TRANSPORTER: inhibition of benzylpenicillin uptake by Indomethacin at a concentration of 1000uM in Oat3-expressing oocyte cells. It counts as functional, cell-based. Set-up: scale not given: the % may be the effect or the level left.
For data set [19], the target named is T2, Oat3 (organic anion transporter 3). Description: TP_TRANSPORTER: inhibition of benzylpenicillin uptake by Indoxyl sulfate at a concentration of 1000uM in Oat3-expressing oocyte cells. The format is functional, cell-based. Set-up: scale not given: the % may be the effect or the level left. To be noted: Oat3-expressing oocytes, probe benzylpenicillin; read-out: Activity.

Substrate in data set [20]: CC1(C)S[C@@H]2[C@H](NC(=O)Cc3ccccc3)C(=O)N2[C@H]1C(=O)O
Described as §1. The format is functional, cell-based.

Substrate in data set [21]: C[C@]12CC[C@@H]3c4ccc(O)cc4CC[C@H]3[C@@H]1CC[C@@H]2O[C@@H]1O[C@H](C(=O)O)[C@@H](O)[C@H](O)[C@H]1O
The data set is described as §1. It counts as functional, cell-based.

In [1], `O=C(O)[C@H]1O[C@@H](Oc2c[nH]c3ccccc23)[C@H](O)[C@@H](O)[C@@H]1O` [INDOXYL GLUCURONIDE] had an Activity of 72.3%.

With `N[C@@H](Cc1cc(I)c(Oc2ccc(O)c(I)c2)c(I)c1)C(=O)O` [LIOTHYRONINE], the activity at 1000 µM in data set [2] came out at 39.8%. In the case of `O=c1[nH]c(=O)c2[nH]c(=O)[nH]c2[nH]1` [URIC ACID], the activity at 1000 µM in data set [3] was found to be 19.9%. As to `C[C@]12CC[C@@H]3c4ccc(OS(=O)(=O)O)cc4CC[C@H]3[C@@H]1CCC2=O` [ESTRONE SULFURIC ACID], the Activity was 11.4% in data set [4] and “substrate []” in data set [5]. Turning to `O=C(O)c1ccccc1O` [SALICYLIC ACID], in data set [5], the Activity result was “substrate []”. On to `O=C1OC(c2ccc(O)c(S(=O)(=O)[O-])c2)(c2ccc(O)c(S(=O)(=O)[O-])c2)c2c(Br)c(Br)c(Br)c(Br)c21.[Na+].[Na+]` [SULFOBROMOPHTHALEIN SODIUM], for which the Activity in data set [6] is listed as 2.54%. With `CC[C@H](C)C(=O)O[C@H]1C[C@H](O)C=C2C=C[C@H](C)[C@H](CC[C@@H](O)C[C@@H](O)CC(=O)O)[C@H]21` [PRAVASTATIN], in data set [7], the activity at 1000 µM stood at 2.85%. As to `O=C(O)Cc1c[nH]c2ccc(O)cc12`, in [8], the Activity came to 21.7%. `Nc1ccc(C(=O)NCC(=O)O)cc1` [AMINOHIPPURIC ACID]: the Activity is 14.2% in data set [9] and “substrate []” in data set [5].

Take `C[C@]12CC[C@@H]3c4ccc(O)cc4CC[C@H]3[C@@H]1CC[C@H]2O.O=S(=O)(O)O`: in [10], the Activity amounted to 65.5%. Molecule `Cc1cn([C@H]2C[C@H](N=[N+]=[N-])[C@@H](CO)O2)c(=O)[nH]c1=O` [ZIDOVUDINE] gave an Activity in data set [11] of 5.13%. Take `CCCCC[C@H](O)/C=C/[C@H]1[C@H](O)CC(=O)[C@@H]1C/C=C\CCCC(=O)O` [DINOPROSTONE]: in data set [12], the Activity is given as 0.101%. In the case of `CN(Cc1cnc2nc(N)nc(N)c2n1)c1ccc(C(=O)N[C@@H](CCC(=O)O)C(=O)O)cc1` [METHOTREXATE], the Activity is 48.4% in [13] and “substrate []” in [5]. Regarding `COc1cc(CC(=O)O)ccc1O` [HOMOVANILLIC ACID], the values for the Activity in data set [14] and in [5] were 40.9% and “substrate []”, respectively.

As to `O=C(O)CCCC(=O)O` [GLUTARATE], the Activity entry in data set [5] was “substrate []”.

Consider `C[C@]12CC[C@@H]3c4ccc(OS(=O)(=O)O)cc4CC[C@H]3[C@@H]1CC[C@@H]2O[C@@H]1O[C@H](C(=O)O)[C@@H](O)[C@H](O)[C@H]1O` [ESTRADIOL GLUCURONIDE SULFATE], for which the activity at 5 µM in data set [15] stood at 62.4%. `CN/C(=N/CCSCc1nc[nH]c1C)NC#N` [CIMETIDINE] had an activity at 1000 µM in data set [16] of 6.88%. The Activity result in data set [5] was “substrate []”.

In data set [17], `CCCN(CCC)S(=O)(=O)c1ccc(C(=O)O)cc1` [PROBENECID] had an Activity of 0.625%. `COc1ccc2c(c1)c(CC(=O)O)c(C)n2C(=O)c1ccc(Cl)cc1` [INDOMETHACIN]: the figures for the Activity in [18] and in [5] were 1.32% and “substrate []”, respectively. For the molecule `O=S(=O)(O)Oc1c[nH]c2ccccc12` [INDOXYL SULFATE], the activity at 1000 µM in [19] stood at 21.9%. Besides, in data set [5], the Activity entry was “substrate []”.

B1: Organic anion transporter 3 (Mus musculus) (protein)
chain: MTFSEILDRVGSMGPFQYLHVTLLALPILGIANHNLLQIFTATTPDHHCRPPPNASLEPWVLPLGPNGKPEKCLRFVHLPNASLPNDTQGATEPCLDGWIYNSTRDTIVTEWDLVCGSNKLKEMAQSVFMAGILVGGPVFGELSDRFGRKPILTWSYLLLAASGSSAAFSPSLTVYMIFRFLCGCSISGISLSTIILNVEWVPTSTRAISSTTIGYCYTIGQFILPGLAYAVPQWRWLQLSVSAAFFIFSLLSWWVPESIRWLVLSGKFSKALKTLQRVATFNGKKEEGEKLTVEELKFNLQKDITSAKVKYGLSDLFRVSILRRVTFCLSLAWFATGFAYYSLAMGVEEFGVNIYILQIIFGGVDIPAKFITILSISYLGRRITQGFLLILAGVAILALIFVSSEMQLLRTALAVFGKGCLSGSFSCLFLYTSELYPTVLRQTGMGISNIWARVGSMIAPLVKITGELQPFIPNVIFGTMTLLGGSAAFFLLETLNRPLPETIEDIQDWYQQTKKTKQEPEAEKASQTIPLKTGGP
The term Km denotes the concentration of substrate that gives half-maximal velocity. With B1, the Km came to 40 µM in data set [20] and 5.5 µM in data set [21].
